Key:
[1] = biological target: CDK4/CyclinD1 (Homo sapiens (Human), UniProt P11802); test: Assay for inhibition of CDK4/CyclinD1 (Caliper microfluidic kinase assay); format: biochemical; conditions: summary statement
Experimental: (§1) The CDK4 enzyme assay for IC50 determination was performed as follows. Microfluidic kinase detection technology (Caliper) was used to monitor the phosphorylation of peptide substrate by CDK4/CyclinD1. The total reaction volume was 15 μL containing buffer A (100 mM HEPES (pH 7.5), 0.1% BSA, 0.01% Triton X-100, 1 mM DTT, 10 mM MgCl2, 10 μM Sodium Orthovanadate, 10 μM Beta-Glycerophosphate), 200 μM ATP, 1 nM CDK4/CyclinD1 (Thermofisher, PR8064A), 1 μM FL-34 (5-FAM-[…]), and the test compound at appropriate dilutions in DMSO. All components were added to the 384-well plate (Corning, 4514), and incubated at Room Temperature for 3 hours. The reaction was terminated by addition of 15 μL Stop Buffer (180 mM HEPES (pH 7.5), 20 mM EDTA, Coating-3 reagent (PerkinElmer, 760050)). The plate was then loaded on Caliper EZ Reader (EZ Reader II, PerkinElmer, HD-4HYSG2772), and the reaction mixtures including substrate and product were sipped into the microfluidic chip for separation and detection. The IC50 values of the test compound were determined by fitting the inhibition curves by 4 parameter sigmoidal dose-response model using the Xlfit5/GraphPad Prism 5 software.

[2] = biological target: CDK2/CyclinE1 (Homo sapiens (Human), UniProt P24941); test: Assay for inhibition of CDK2/CyclinE1 (Caliper microfluidic kinase assay); format: biochemical; conditions: summary statement
Experimental: The CDK2 enzyme assay for IC50 determination was performed as follows. Microfluidic kinase detection technology (Caliper) was used to monitor the phosphorylation of peptide substrate by CDK2/CyclinE1. The total reaction volume was 15 μL containing buffer A (100 mM HEPES (pH 7.5), 0.1% BSA, 0.01% Triton X-100, 1 mM DTT, 10 mM MgCl2, 10 μM Sodium Orthovanadate, 10 μM Beta-Glycerophosphate), 100 μM ATP, 5 nM CDK2/CyclinE1 (SignalChem, C29-18G), 5 μM FL-18 (5-FAM-QSPKKG-NH2), and the test compound at appropriate dilutions in DMSO. All components were added to the 384-well plate (Corning, 4514), and incubate at Room Temperature for 3 hours. The reaction was terminated by addition of 15 μL Stop Buffer (180 mM HEPES (pH 7.5), 20 mM EDTA, Coating-3 reagent (PerkinElmer, 760050)). The plate was loaded on Caliper EZ Reader (EZ Reader II, PerkinElmer, HD-4HYSG2772), and the reaction mixtures including substrate and product were sipped into the microfluidic chip for separation and detection. The IC50 values of the test compound were determined by fitting the inhibition curves by 4 parameter sigmoidal dose-response model using the Xlfit5/GraphPad Prism 5 software.

[3] = biological target: CDK6/CyclinD3 (Homo sapiens (Human), UniProt Q00534); test: Assay for inhibition of CDK6/CyclinD3 (Caliper microfluidic kinase assay); format: biochemical; conditions: summary statement
CDK6/CyclinD3, sequence (Q00534 whole entry): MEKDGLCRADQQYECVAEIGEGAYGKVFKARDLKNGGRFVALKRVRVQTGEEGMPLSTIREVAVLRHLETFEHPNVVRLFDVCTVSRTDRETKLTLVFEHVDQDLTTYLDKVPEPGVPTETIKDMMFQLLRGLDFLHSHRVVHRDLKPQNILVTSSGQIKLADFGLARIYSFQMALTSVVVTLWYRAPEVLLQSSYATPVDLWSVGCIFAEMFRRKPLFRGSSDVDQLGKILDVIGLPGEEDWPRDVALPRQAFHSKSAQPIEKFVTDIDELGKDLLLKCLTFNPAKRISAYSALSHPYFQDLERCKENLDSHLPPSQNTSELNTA
CDK6/CyclinD3, sequence (P30281 whole entry partner): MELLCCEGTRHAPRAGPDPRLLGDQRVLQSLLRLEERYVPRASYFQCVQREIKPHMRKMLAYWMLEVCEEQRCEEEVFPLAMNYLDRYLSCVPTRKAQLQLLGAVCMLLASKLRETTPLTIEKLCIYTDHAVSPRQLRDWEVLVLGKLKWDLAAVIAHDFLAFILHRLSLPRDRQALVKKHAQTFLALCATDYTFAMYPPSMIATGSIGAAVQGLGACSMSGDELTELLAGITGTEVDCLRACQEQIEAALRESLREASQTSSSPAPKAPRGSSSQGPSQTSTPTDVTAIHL
Experimental: as §1, with “The CDK6” for “The CDK4”, “by CDK6/CyclinD3.” for “by CDK4/CyclinD1.”, “volume is” for “volume was”, “Beta-Glycerophosphate), 300” for “Beta-Glycerophosphate), 200”, “ATP, 2” for “ATP, 1”, “nM CDK6/CyclinD3 (Carna, 04-107),” for “nM CDK4/CyclinD1 (Thermofisher, PR8064A),”

[4] = system: T47D breast cancer cells; test: Anti-proliferation assay in T47D cell (Cyquant); format: cell-based, human; conditions: for IC50: Homo sapiens, T47D, 144 h, anti-proliferation, day 6 after compound addition
Excerpt: T47D is a human breast cancer cell line commonly used in biomedical research involving the hormonal expression of cancer cells. T47D cells are distinct from other human breast cancer cells in that their progesterone receptors (PR) are not regulated by estradiol, a hormone that is abundant within the cells themselves. T47D cells have been employed in studies of the effects of progesterone on breast cancer and the corresponding transcriptional regulation caused by introduced drugs. The cells have been noted to be extremely resistant to estrogens and antiestrogens.
T47D breast cancer cells from American Type Culture Collection (ATCC, HTB-133) were plated at 3000 cells/well in 96-well plates, and were incubated in RPMI 1640 medium (Gibco, 31800105) with 10% Fetal Bovine Serum (FBS, Biowest, FB-1058) at 37° C., 5% CO2. After overnight incubation, baseline values were measured of the samples from one plate using Cyquant reagent (Invitrogen, C35011) following manufacturer's recommendations. Cells were incubated with the detection reagent for 1 hour at 37° C., and then the fluorescence was measured with excitation at 485 nm and emission at 535 nm using Spectra Max M5 (Molecular Devices, HD-4HYSG3196). Other plates were dosed with compounds at a ten-point dose concentration from 10 μM to 0.51 nM in a 3-fold dilution scheme. On day 6 after compound addition, Cyquant reagent was added and the fluorescence was measured using Spectra Max M5. The IC50 values of the test compound's anti-proliferation activity were determined from the baseline subtracted viability readout curve using Xlfit5/GraphPad Prism 5 software.

[5] = Brain penetration (stated in summary, no method); conditions: summary statement
[6] = system: Phosphorylation of Retinoblastoma Protein (pRb) Ser807/811 in T47D cell; test: Inhibition of phosphorylation of retinoblastoma protein (pRb) in T47D cell (ELISA); format: cell-based; conditions: Homo sapiens, 24 hours incubation, read-out: Phospho T47D Ser807 IC50
Experimental: T47D breast cancer cells from American Type Culture Collection (ATCC, HTB-133) were plated at 40,000 cells/well in 96-well plates, and were incubated in RPMI 1640 medium (Gibco, 31800105) with 10% Fetal Bovine Serum (FBS, Biowest, FB-1058). Cells were then allowed to adhere overnight at 37° C., 5% CO2. The following day, compounds were titrated in a 3-fold dilution scheme, and the highest compound concentration tested was […]. After 24 hours incubation with compounds, cells were lysed in ice-cold lysis buffer containing phosphatase inhibitor cocktail and 1 mM PMSF. Cell lysates (50 μL/well) were then transferred to ELISA plates (pRb Ser807/811 ELISA kit, Cell Signaling, 13152 or pRb Ser780 ELISA kit, Cell Signaling, 13016)). Plates were incubated overnight at 4° C., with constant slow speed shaking. After incubation, plates were washed following manufacturer's recommendations, and then 100 μL reconstituted detection antibody was added to each well and incubated for 1 hour at 37° C. After incubation, plates were washed, and then 100 μL reconstituted HRP-linked secondary antibody was added to each well and incubated for 30 mins at 37° C. […] Plates were read on the Envision plate reader (PerkinElmer, 2104-0010) using the 96-well […] mode. IC50 values were calculated using 4 parameter sigmoidal dose-response model of Xlfit5/GraphPad Prism 5 software.

CDK4/CyclinD1, sequence (P11802 whole entry): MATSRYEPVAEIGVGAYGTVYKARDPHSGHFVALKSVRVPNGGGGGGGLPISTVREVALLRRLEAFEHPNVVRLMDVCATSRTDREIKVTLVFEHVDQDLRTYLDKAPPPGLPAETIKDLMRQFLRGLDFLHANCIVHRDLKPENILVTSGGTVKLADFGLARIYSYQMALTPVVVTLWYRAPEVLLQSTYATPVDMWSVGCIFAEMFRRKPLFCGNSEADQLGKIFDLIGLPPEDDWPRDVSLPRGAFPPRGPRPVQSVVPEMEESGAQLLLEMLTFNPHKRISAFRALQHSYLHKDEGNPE
CDK4/CyclinD1, sequence (P24385 whole entry partner): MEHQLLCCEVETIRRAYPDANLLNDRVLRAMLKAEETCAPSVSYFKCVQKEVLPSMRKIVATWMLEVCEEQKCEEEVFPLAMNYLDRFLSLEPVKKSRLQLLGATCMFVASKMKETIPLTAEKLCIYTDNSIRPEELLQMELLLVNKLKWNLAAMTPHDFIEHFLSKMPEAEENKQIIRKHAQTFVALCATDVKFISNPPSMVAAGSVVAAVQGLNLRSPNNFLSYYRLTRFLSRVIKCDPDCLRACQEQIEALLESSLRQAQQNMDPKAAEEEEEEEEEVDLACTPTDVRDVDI

For `CC(C)c1cnn2ccc(-c3ccnc(Nc4ccc(N5CC[C@H](N(C)C)CC5=O)cn4)n3)cc12` [Compound A], the “inhibition of CDK4 (in words)” value [1] was “actively inhibits”, the “inhibition of CDK2 (in words)” value [2] was “actively inhibits” and the “inhibition of CDK6 (in words)” value [3] was “actively inhibits”. The “anti-proliferation activities (in words)” value ([4]; summary statement) was “strong”.

With `CC(C)N1CCN(c2ccc(Nc3nccc(-c4cc5c(ncn5C(C)C)c(F)n4)n3)nc2)CC1` [Compound B] the “selectivity of CDK4 inhibition (in words)” value [1] was “selectively inhibit” and the “brain penetration (in words)” value [5] was “excellent”.

Work on `CC(C)c1cnn2ccc(-c3ccnc(Nc4ccc(N5CCC(N(C)C)CC5=O)cn4)n3)cc12` (centres unmarked) [Synthetic Example 1] yielded an IC50 [4] of less than 100 nM.

For `CC(C)c1cnn2ccc(-c3ccnc(Nc4ccc(N5CC[C@@H](N(C)C)CC5=O)cn4)n3)cc12` [Synthetic Example 2], the IC50 [4] was less than 100 nM.

For `CC(C)c1cnn2ccc(-c3ccnc(Nc4ccc(N5CC[C@H](N(C)C)CC5=O)cn4)n3)cc12` [Synthetic Example 3], the IC50 [6] was less than 100 nM and the IC50 [4] was less than 100 nM.

`CC(C)N1CCN(c2ccc(Nc3nccc(-c4cc5c(ncn5C(C)C)c(F)n4)n3)nc2)CC1` [Synthetic Example 4] gave an IC50 [4] of less than 100 nM.

Reference: patent US20240033264A1, “CDK INHIBITORS” (QILU REGOR THERAPEUTICS INC., priority 2020, published 2024)
